Assay: xn = mol fraction of the nth substance listed
Settings: Liquid; for viscosity: 100.5 kPa; for mass density: 101 kPa

CCCCCC(=O)OCC [ethyl hexanoate] + CCO
Settings	mass density, 288.15 K [kg/m3]	mass density, 298.15 K [kg/m3]	mass density, 308.15 K [kg/m3]	mass density, 318.15 K [kg/m3]	viscosity, 288.15 K [mPa·s]	viscosity, 298.15 K [mPa·s]	viscosity, 308.15 K [mPa·s]	viscosity, 318.15 K [mPa·s]
x1 = 0.05	804.18	795.44	786.59	777.58	1.241	1.031	0.866	0.732
x1 = 0.1	812.99	804.11	795.12	785.96	1.182	0.982	0.829	0.71
x1 = 0.15	820.54	811.53	802.42	793.14	1.139	0.948	0.806	0.691
x1 = 0.2	827.14	818.05	808.85	799.48	1.106	0.926	0.789	0.676
x1 = 0.25	832.89	823.72	814.44	805.01	1.082	0.909	0.777	0.667
x1 = 0.3	837.94	828.72	819.38	809.89	1.062	0.897	0.769	0.662
x1 = 0.35	842.47	833.2	823.82	814.29	1.051	0.889	0.763	0.659
x1 = 0.4	846.5	837.18	827.76	818.2	1.045	0.883	0.759	0.657
x1 = 0.45	850.15	840.82	831.37	821.8	1.039	0.88	0.758	0.657
x1 = 0.5	853.47	844.11	834.63	825.05	1.037	0.88	0.759	0.658
x1 = 0.55	856.51	847.12	837.64	828.05	1.038	0.882	0.761	0.662
x1 = 0.6	859.28	849.88	840.39	830.79	1.039	0.888	0.765	0.665
x1 = 0.65	861.84	852.43	842.94	833.34	1.045	0.892	0.767	0.668
x1 = 0.7	864.22	854.82	845.33	835.75	1.048	0.896	0.773	0.674
x1 = 0.75	866.43	857.02	847.54	837.97	1.054	0.902	0.779	0.68
x1 = 0.8	868.48	859.09	849.63	840.08	1.064	0.91	0.786	0.686
x1 = 0.85	870.41	861.04	851.59	842.07	1.073	0.919	0.794	0.694
x1 = 0.9	872.22	862.86	853.45	843.97	1.086	0.929	0.803	0.703
x1 = 0.95	873.99	864.66	855.27	845.83	1.1	0.94	0.815	0.712
x1 = 1	875.64	866.29	856.91	847.5	1.102	0.94	0.814	0.711

CCCC(=O)OCCC(C)C [3-methylbutyl butanoate] + CCO
Settings	mass density, 288.15 K [kg/m3]	mass density, 298.15 K [kg/m3]	mass density, 308.15 K [kg/m3]	mass density, 318.15 K [kg/m3]	viscosity, 288.15 K [mPa·s]	viscosity, 298.15 K [mPa·s]	viscosity, 308.15 K [mPa·s]	viscosity, 318.15 K [mPa·s]
x1 = 0.05	804.06	795.35	786.52	777.54	1.27	1.057	0.887	0.744
x1 = 0.1	812.38	803.57	794.63	785.54	1.231	1.025	0.858	0.723
x1 = 0.15	819.51	810.61	801.58	792.4	1.201	1.004	0.844	0.715
x1 = 0.2	825.58	816.61	807.52	798.28	1.181	0.993	0.838	0.711
x1 = 0.25	830.83	821.8	812.66	803.38	1.171	0.985	0.834	0.71
x1 = 0.3	835.41	826.34	817.17	807.86	1.167	0.98	0.832	0.71
x1 = 0.35	839.37	830.31	821.11	811.78	1.168	0.98	0.833	0.714
x1 = 0.4	842.96	833.85	824.64	815.3	1.17	0.984	0.835	0.717
x1 = 0.45	846.14	837.02	827.79	818.44	1.176	0.989	0.84	0.723
x1 = 0.5	849.03	839.9	830.66	821.32	1.183	0.994	0.846	0.729
x1 = 0.55	851.61	842.46	833.24	823.9	1.191	1.001	0.853	0.735
x1 = 0.6	854.01	844.86	835.64	826.33	1.202	1.01	0.862	0.743
x1 = 0.65	856.19	847.05	837.84	828.54	1.213	1.021	0.872	0.751
x1 = 0.7	858.18	849.04	839.85	830.57	1.224	1.031	0.882	0.76
x1 = 0.75	860.04	850.92	841.74	832.49	1.237	1.043	0.891	0.77
x1 = 0.8	861.76	852.65	843.5	834.28	1.253	1.056	0.903	0.781
x1 = 0.85	863.35	854.28	845.15	835.96	1.268	1.071	0.915	0.792
x1 = 0.9	864.86	855.81	846.71	837.56	1.284	1.086	0.929	0.806
x1 = 0.95	866.3	857.28	848.22	839.12	1.302	1.099	0.941	0.817
x1 = 1	867.72	858.69	849.62	840.55	1.317	1.111	0.952	0.827

Source: the NIST ThermoML archive (doi:10.1021/je050389b)
